Results as given in US20110183969A1, “ANTIFUNGAL COMBINATION THERAPY” (priority 2008, published 2011).
Converted amounts (≈) assume the structure as drawn. Where two headings read alike, the source gives them in different places.

What was measured:
Assay type in all cases: cell-based
[1] = test system: Aspergillus terreus AT49; assay: MIC (YAG medium); details: YAG medium, MIC banded into grades, AT49; for MIC: Aspergillus terreus, read-out: MIC A. terreus 49 (grade)
Outline: (§1)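 Spores harvested from 5-day Sabouraud agar cultures were diluted in YAG medium (1% glucose, 1% ammonium chloride, 0.5% yeast extract) to final inocula of 1-2×10^4 cfu/mL and exposed to doubling dilutions of compound (50-0.05 mg/L). After 24 hrs at 35° C, OD485 was read; MIC is the lowest concentration giving >70% growth inhibition versus drug-free control.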

[2] = test system: Aspergillus flavus; assay: MIC (YAG medium); details: YAG medium, MIC banded into grades; for MIC: Aspergillus flavus, read-out: MIC A. flavus (grade)
Outline: as §1

[3] = test system: Aspergillus niger; assay: MIC (YAG medium); details: YAG medium, MIC banded into grades; for MIC: Aspergillus niger, read-out: MIC A. niger (grade)
Outline: as §1

[4] = test system: Aspergillus fumigatus AF293; assay: MIC (YAG medium); details: YAG medium, MIC banded into grades, AF293; for MIC: Aspergillus fumigatus, read-out: MIC A. fumigatus (grade)
Outline: as §1

[5] = test system: Aspergillus fumigatus AF210; assay: MIC (YAG medium); details: YAG medium, MIC banded into grades, AF210; for MIC: Aspergillus fumigatus, read-out: MIC A. fumigatus 210 (grade)
Outline: as §1

[6] = test system: Aspergillus terreus AT4; assay: MIC (YAG medium); details: YAG medium, MIC banded into grades, AT4; for MIC: Aspergillus terreus, read-out: MIC A. terreus (grade)
Outline: as §1

[7] = test system: Fusarium solani FS2; assay: 24 hr Fusarium solani MIC (RPMI medium, FS2); details: banded into grades
Method: Between 1 and 5 mgs of compound were accurately weighed out into a sterile Eppendorf tube. The compound was dissolved in DMSO to give a solution containing 5 mg/mL. Tubes were stored at −20° C. until required.
On the day of testing thawed solutions were vortex mixed to ensure homogeneity. 30 μL of solution was removed and added to 570 μL of sterile water in a separate sterile Eppendorf The thoroughly mixed solution was used to prepare a series of doubling dilutions in water, in a deep well plate. […] replicate plates were prepared using a Minitrak by aspirating 20 μL from each well into eleven clear polystyrene 96 well plates.
Spores of Aspergillus spp. (Aspergillus fumigatus [two strains], Aspergillus terreus [two strains], Aspergillus niger and Aspergillus flavus) were harvested from cultures grown on Sabarauds agar for 5 days, and resuspended in PBS/Tween 80 to approx 1×10^7 cfu/mL. Other filamentous fungi (Absidia corymbifera, Fusarium solani, Rhizomucor, Scedosporium spp., Trichophyton spp.), were grown on Sabarauds agar for 2-10 days and spores/hyphae resuspended in PBS/Tween to give approx 1×10^7 cfu/mL. Candida species (Candida albicans, Candida glabrata, Candida krusei, Candida parapsilosis and Candida tropicalis) were grown on Sabarauds agar, cells were harvested from the agar using a sterile loop and resuspended in PBS/Tween 80 to approx 1×10^6 cfu/mL. Each organism suspension was diluted in RPMI medium, containing 2% glucose and 0.135 M MOPS buffer (pH 7.0) to 0.5−2×10^4 cfu/mL for Aspergillus spp. and other filamentous fungi and 0.5-2×10^3 cfu/mL for yeast. 80 μL of an organism suspension was added to each well of the plate containing drug dilutions.
This produced MIC plates with a drug range 50-0.05 mg/L and organism inocula of 1-2×10^4 cfu/mL for Aspergillus spp. and other filamentous fungi and 1-2×10^3 cfu/mL for yeasts. All plates were incubated for 24-48 hrs at 35° C. Growth was assessed by monitoring the optical density at 485 nm for each well. The MIC of a compound is the lowest drug concentration that inhibits growth of an organism by >80% compared with a drug free control. MICs are recorded as mg/L. Other growth media can be used for susceptibility testing, and the activity of the described compounds can also be assessed in a medium comprising 1% glucose, 1% ammonium chloride and 0.5% yeast extract (YAG medium). To perform MIC tests in this medium, dilutions of compounds are prepared in microtitre plates as described above. Fungal strains to be tested are grown and harvested in an identical manner to that described above, each organism suspension is then diluted in YAG medium to 0.5-2×10^4 cfu/mL for Aspergillus spp. and other filamentous fungi and 0.5-2×10^3 cfu/mL for yeast. 80 μL of an organism suspension was added to each well of the plate containing drug dilutions. This produced MIC plates with a drug range 50-0.05 mg/L and organism inocula of 1-2×10^4 cfu/mL for Aspergillus spp. and other filamentous fungi and 1-2×10^3 cfu/mL for yeasts. All plates were incubated for 24 hrs at 35° C. Growth was assessed by monitoring the optical density at 485 nm for each well. The MIC of a compound is the lowest drug concentration that inhibits growth of an organism by >70% compared with a drug free control. MICs are recorded as mg/L. In cases where the MIC of an organism is […] mg/L the MIC is repeated using a concentration range of 0.5-0.0005 mg/L. MIC tests in YAG medium have more clear-cut endpoints and have slightly lower MICs than those performed in RPMI medium.
24 hr Fusarium solani MIC Results (RPMI Medium, FS2): […]

[8] = test system: Aspergillus fumigatus AF210; assay: Checkerboard titration (FIC) of an indolizine derivative with a second antifungal agent, RPMI medium; details: compound of Example 21 in combination with caspofungin, 48 hrs
Method: To determine the combined antifungal effect of indolizine derivatives of formula (I) and the second antifungal agent a checkerboard titration can be carried out. These are relatively simple tests to determine the combined effects of two compound. In the checkerboard titration doubling dilutions of compound A (e.g. an indolizine derivative of formula (I)) are prepared in every row across a microtitre plate and doubling dilutions of compound B (e.g. a second antifungal agent as described above) are prepared in every column down a microtitre plate. The activity of the two compounds in combination can be compared with the activity of each compound alone. In these experiments a narrow range of dilutions was tested for each compound around the MIC.
A stock solution of the compound of Example […] was prepared in DMSO. A stock solution of a second antifungal agent, in this case caspofungin, was 2 mg/ml.
The stock solution of the compound of Example 21 was diluted 1:2000 in water to 2.5 μg/ml. From this stock, aqueous solutions containing the following concentrations of the compound of Example 21 were prepared 0.9, 0.8, 0.7, 0.6, 0.5, 0.4, 0.3, 0.2, 0.1, 0.05, 0.025, 0.0125 μg/ml. […]
To determine the combined effect of the compounds the Fractional inhibitory concentration FIC was determined, where FIC is defined as: […]

Row | MIC [1] [mg/L] | MIC [2] [mg/L] | MIC [3] [mg/L] | MIC [4] [mg/L] | MIC [5] [mg/L] | MIC [6] [mg/L] | MIC ([7]; read-out: MIC) [mg/L] | Compound | FIC (fractional inhibitory concentration) [8] | MIC A. terreus 49 (grade) [1] | MIC A. flavus (grade) [2] | MIC A. niger (grade) [3] | MIC A. fumigatus (grade) [4] | MIC A. fumigatus 210 (grade) [5] | MIC A. terreus (grade) [6] | MIC [7]
1 | < 1 | < 1 | < 1 | < 1 | < 1 | < 1 | < 1 | Cc1cc(C)nc(N2CCN(c3ccc(NC(=O)C(=O)c4c(-c5ccccc5)cc5ccccn45)cc3)CC2)c1 [Example 21, N-{4-[4-(4,6-Dimethyl-pyridin-2-yl)-piperazin-1-yl]-phenyl}-2-oxo-2-(2-phenyl-indolizin-3-yl)-acetamide] | 0.66 |  |  |  |  |  |  | 
2 | < 1 | < 1 | > 10 | < 1 | 1 to 10 (≈ 1.78 to 17.8 µM) | 1 to 10 (≈ 1.78 to 17.8 µM) | 1 to 10 (≈ 1.78 to 17.8 µM) | CC(C)c1cc(NC(=O)C(=O)c2c(-c3ccccc3)cc3ccccn23)ccc1C(=O)OCCn1ccnc1C(C)C [Example 13, 2-Isopropyl-4-[2-oxo-2-(2-phenyl-indolizin-3-yl)-acetylamino]-benzoic acid 2-(2-isopropyl-imidazol-1-yl)-ethyl ester] |  |  |  |  |  |  |  | 
3 | < 1 | < 1 | < 1 | < 1 | < 1 | < 1 | < 1 | O=C(Nc1ccc(N2CCC3(CC2)OCCO3)cc1)C(=O)c1c(-c2ccccc2)cc2ccccn12 [Example 23, N-[4-(1,4-dioxa-8-aza-spiro[4.5]dec-8-yl)-phenyl}-2-oxo-2-(2-phenyl-indolizine-3-yl)-acetamide] |  |  |  |  |  |  |  | 
4 | < 1 | < 1 | < 1 | < 1 | < 1 | < 1 | 1 to 10 (≈ 1.86 to 18.6 µM) | CC1CN(C2CCN(c3ccc(NC(=O)C(=O)c4c(-c5ccccc5)cc5ccccn45)cc3)CC2)CC(C)O1 (stereo not shown) [Example 24, N-{4-[4-(2,6-Dimethyl-morpholin-4-yl)-piperidin-1-yl]-phenyl}-2-oxo-2-(2-phenyl-indolizin-3-yl)-acetamide] |  |  |  |  |  |  |  | 
5 |  |  |  |  |  |  |  | C=C1CCN(c2ccc(NC(=O)C(=O)c3c(-c4ccccc4)cc4ccccn34)cc2)CC1 [Example 3, N-[4-(4-methylene-piperidin-1-yl)-phenyl]-2-oxo-2-(2-phenyl-indolizin-3yl) acetamide] |  | 3 (A grade of 3 represents an MIC of less than 1 mg/L) | 3 (A grade of 3 represents an MIC of less than 1 mg/L) | 3 (A grade of 3 represents an MIC of less than 1 mg/L) | 3 (A grade of 3 represents an MIC of less than 1 mg/L) | 3 (A grade of 3 represents an MIC of less than 1 mg/L) | 3 (A grade of 3 represents an MIC of less than 1 mg/L) | 3 (A grade of 3 represents an MIC of less than 1 mg/L)
6 | < 1 | < 1 | < 1 | < 1 | < 1 | < 1 | < 1 | CON=C1CCN(c2ccc(NC(=O)C(=O)c3c(-c4ccccc4)cc4ccccn34)cc2)CC1 [Example 2, N-[4-(4-methoxyimino-piperidin-1-yl)-phenyl]-2-oxo-2-(2-phenyl-indolizin-3-yl)-acetamide] |  |  |  |  |  |  |  | 
